Source: US20220071932A1, “Compositions and Methods Against Stress-Induced Affective Disorders and Their Associated Symptoms” (The Trustees of Columbia University in the City of New York, priority 2019, published 2022)

Assays:
Assay type in all cases: in vivo
129S6/SvEv mice [1] = experiment: Marble burying (MB); conditions: 30 mg/kg; drug 5 minutes after stress; FIG. 2K
Experimental: The MB assay was conducted in a clean cage (10.5 in×5.5 in) containing soft pliable Beta Chip bedding (Northeastern Products Corp, Warrensburg, N.Y.). The cage contained 16 marbles set up in 4 rows of 4 across. Mice were given 30 minutes to explore and bury. At the end of the assay, the percentage of marbles buried was calculated.

129S6/SvEv mice [2] = experiment: Contextual fear conditioning (CFC), 3-shock; freezing; conditions: for p, Freezing (%), CFC Re-exposure 2, Saline vs. drug: drug 5 min after re-exposure 1; for Behavior: Fear: dose 30 mg/kg
Experimental: A 3-shock CFC paradigm was administered as previously described (45, 46). CFC was conducted in chambers obtained from Med Associates (St. Albans, Vt.), with internal dimensions of approximately 20 cm wide×16 cm deep×20.5 cm high. The chambers had metal walls on each side, clear plastic front and back walls and ceilings, and stainless-steel bars on the floor. A house light (CM1820 bulb, 28v, 100 mA) mounted directly above the chamber provided illumination. Each chamber was located inside a larger, insulated, plastic cabinet that provided protection from outside light and noise. Each cabinet contained a ventilation fan that was operated during the sessions. A paper towel dabbed with lemon solution was placed underneath the chamber floor. Mice were held outside the experimental room in their home cages prior to testing and transported to the conditioning apparatus individually in standard mouse cages Chambers were cleaned with 70% EtOH between each set of mice. Mice were placed into the conditioning chamber and received shocks at 180 s, 240 s, and 300 s (2 s duration, 0.75 mA). Fifteen seconds after the last shock, mice were removed from the chamber. Overall, the training session lasted 317 s. […] All sessions were scored for freezing using FreezeFrame4.

129S6/SvEv mice [3] = experiment: Forced swim test (FST); immobility time; conditions: for p, Fisher's PLSD Saline vs. drug, FST Day 2 Immobility Time (sec): drug 1 week before stress; for Behavior: Depressive-like: dose 30 mg/kg
Experimental: The FST was administered as previously described (47). Briefly, mice were placed into clear plastic buckets 20 cm in diameter and 23 cm deep filled ⅔ of the way with 22° C. water. Mice were videotaped from the side for 6 min and were exposed to the swim test on 2 consecutive days Immobility time was scored by an experimenter blind to the experimental groups.

[4] = 30 mg/kg, drug 1 week before stress, FIG. 1C
[5] = 30 mg/kg, drug 5 minutes after stress, FIG. 2C
[6] = 5 min prior to CFC, (R,S)-ketamine 30 mg/kg, FENM 20 mg/kg, vs saline
[7] = Prophylactic (5 min before stress)
[8] = Prophylactic (7 days before stress)
[9] = Saline vs. (R,S)-ketamine (30 mg/kg), FIG. 8D
[10] = Saline vs. (R,S)-ketamine (30 mg/kg), FIG. 8F
[11] = 30 mg/kg, drug 5 minutes after stress, FIG. 2F
[12] = Saline vs. (R,S)-ketamine (30 mg/kg), FIG. 8H

## CNC1(c2ccccc2Cl)CCCCC1=O (racemic) [(R,S)-ketamine, reference compound]
129S6/SvEv mice [1]
  p, Fisher's PLSD Saline vs. drug, MB Marbles Buried (no.): 0.7292
129S6/SvEv mice [2]; [4]
  p, Fisher's LSD Saline vs. drug, CFC Re-exposure Freezing Min 1 (%): 0.0101
  p, Fisher's LSD Saline vs. drug, CFC Re-exposure Freezing Min 2 (%): 0.0012
  p, Fisher's LSD Saline vs. drug, CFC Re-exposure Freezing Min 3 (%): 0.0320
  p, Fisher's LSD Saline vs. drug, CFC Re-exposure Freezing Min 4 (%): 0.0592
  p, Fisher's LSD Saline vs. drug, CFC Re-exposure Freezing Min 5 (%): 0.4016
129S6/SvEv mice [2]; 30 mg/kg, drug 1 week before stress, after ANOVA, FIG. 1D
  p, Fisher's LSD Saline vs. drug, CFC Re-exposure Freezing (%): 0.0086
129S6/SvEv mice [2]; 30 mg/kg, drug 1 week before stress, after RMANOVA, FIG. 1C
  p, Fisher's LSD Saline vs. drug, CFC Re-exposure Freezing (%): 0.0086
129S6/SvEv mice [2]; [5]
  p, Fisher's PLSD Saline vs. drug, CFC Re-exposure Freezing Min 1 (%): 0.6701
  p, Fisher's PLSD Saline vs. drug, CFC Re-exposure Freezing Min 2 (%): 0.0587
  p, Fisher's PLSD Saline vs. drug, CFC Re-exposure Freezing Min 3 (%): 0.1358
  p, Fisher's PLSD Saline vs. drug, CFC Re-exposure Freezing Min 4 (%): 0.5515
  p, Fisher's PLSD Saline vs. drug, CFC Re-exposure Freezing Min 5 (%): 0.1641
129S6/SvEv mice [2]; 30 mg/kg, drug 5 minutes after stress, after RMANOVA, FIG. 2C
  p, Fisher's PLSD Saline vs. drug, CFC Re-exposure Freezing (%): 0.4342
129S6/SvEv mice [2]; 1 week prior to CFC, (R,S)-ketamine 30 mg/kg, FENM 20 and 30 mg/kg, vs saline
  fear expression during CFC re-exposure: decreased fear expression
129S6/SvEv mice [2]; 5 min after context re-exposure 1 (24 h before re-exposure 2), (R,S)-ketamine 30 mg/kg, FENM 20 mg/kg, vs saline
  fear expression during re-exposure 2: but not (R,S)-ketamine, significantly decreased
129S6/SvEv mice [2]; [6]
  fear expression during CFC re-exposure 1: significantly decreased fear expression
  fear expression during CFC re-exposure 2: significantly decreased fear expression
  freezing during CFC training: significantly increased freezing
129S6/SvEv mice [2]; Fisher's LSD after ANOVA, FENM 20 mg/kg, (R,S)-ketamine 30 mg/kg, FIG. 4G
  p, Freezing (%), CFC Re-exposure 2, Saline vs. drug: 0.9122
129S6/SvEv mice [2]; Fisher's LSD after RMANOVA, FENM 20 mg/kg, ketamine 30 mg/kg, FIG. 4F
  p, Freezing (%), CFC Re-exposure 2, Saline vs. drug: 0.9122
129S6/SvEv mice [2]; Fisher's LSD after RMANOVA, drug 5 min before CFC, (R,S)-ketamine 30 mg/kg, FENM dose lies beyond the rows shown, FIG. 8B
  p, Freezing (%), CFC Training, Saline vs. drug: 0.0024
129S6/SvEv mice [2]; [7]
  Behavior: Fear: ↓
129S6/SvEv mice [2]; [8]
  Behavior: Fear: ↓
129S6/SvEv mice [2]; Saline vs. (R,S)-ketamine (30 mg/kg), FIG. 8C
  CFC Training, Average Freezing, p (Fisher's LSD): 0.0024
129S6/SvEv mice [2]; [9]
  CFC Re-exposure 1, Freezing Min 1 (%), p (Fisher's LSD): 0.0066
  CFC Re-exposure 1, Freezing Min 2 (%), p (Fisher's LSD): <0.0001
  CFC Re-exposure 1, Freezing Min 3 (%), p (Fisher's LSD): <0.0001
  CFC Re-exposure 1, Freezing Min 4 (%), p (Fisher's LSD): <0.0001
  CFC Re-exposure 1, Freezing Min 5 (%), p (Fisher's LSD): <0.0001
129S6/SvEv mice [2]; [10]
  CFC Re-exposure 2, Freezing Min 1 (%), p (Fisher's LSD): 0.4378
  CFC Re-exposure 2, Freezing Min 2 (%), p (Fisher's LSD): 0.0304
  CFC Re-exposure 2, Freezing Min 4 (%), p (Fisher's LSD): <0.0001
  CFC Re-exposure 2, Freezing Min 5 (%), p (Fisher's LSD): <0.0001
129S6/SvEv mice [2]; Saline vs. (R,S)-ketamine (30 mg/kg), after ANOVA, FIG. 8E
  CFC Re-exposure 1, Freezing (%), p (Fisher's LSD): <0.0001
129S6/SvEv mice [2]; Saline vs. (R,S)-ketamine (30 mg/kg), after ANOVA, FIG. 8G
  CFC Re-exposure 2, Freezing (%), p (Fisher's LSD): <0.0001
129S6/SvEv mice [2]; Saline vs. (R,S)-ketamine (30 mg/kg), after RMANOVA, FIG. 8D
  CFC Re-exposure 1, Freezing (%), p (Fisher's LSD): <0.0001
129S6/SvEv mice [2]; Saline vs. (R,S)-ketamine (30 mg/kg), after RMANOVA, FIG. 8F
  CFC Re-exposure 2, Freezing (%), p (Fisher's LSD): <0.0001
129S6/SvEv mice [2]; Saline vs. ketamine (30 mg/kg), FIG. 8F
  CFC Re-exposure 2, Freezing Min 3 (%), p (Fisher's LSD): 0.0033
129S6/SvEv mice [2]; one week prior to 3-shock CFC (c-fos / Western blot cohort), (R,S)-ketamine 30 mg/kg, FENM 20 mg/kg, vs saline
  behavior during CFC training: did not alter behavior
129S6/SvEv mice [2]; one week prior to 3-shock CFC, re-exposed five days later, (R,S)-ketamine 30 mg/kg, FENM 20 mg/kg, vs saline
  freezing upon re-exposure: significantly reduced freezing
129S6/SvEv mice [3]; 30 mg/kg, after ANOVA, FIG. 1G
  p, Fisher's PLSD Saline vs. drug, FST Day 2 Immobility Time (sec): 0.0007
129S6/SvEv mice [3]; 30 mg/kg, after RMANOVA, FIG. 1F
  p, Fisher's PLSD Saline vs. drug, FST Day 2 Immobility Time (sec): 0.0003
129S6/SvEv mice [3]; [11]
  p, Fisher's PLSD Saline vs. drug, FST Day 2 Immobility Time Min 1 (s): 0.7994
  p, Fisher's PLSD Saline vs. drug, FST Day 2 Immobility Time Min 2 (s): 0.0125
  p, Fisher's PLSD Saline vs. drug, FST Day 2 Immobility Time Min 3 (s): 0.8598
  p, Fisher's PLSD Saline vs. drug, FST Day 2 Immobility Time Min 4 (s): 0.2874
  p, Fisher's PLSD Saline vs. drug, FST Day 2 Immobility Time Min 5 (s): 0.6526
  p, Fisher's PLSD Saline vs. drug, FST Day 2 Immobility Time Min 6 (s): 0.1586
129S6/SvEv mice [3]; 30 mg/kg, drug 5 minutes after stress, after ANOVA, FIG. 2G
  p, Fisher's PLSD Saline vs. drug, FST Day 2 Immobility Time (s): 0.0466
129S6/SvEv mice [3]; [6]
  immobility time, day 2 of the FST: significantly decreased immobility time
129S6/SvEv mice [3]; Antidepressant (5 min after stress)
  Behavior: Depressive-like: ↓
129S6/SvEv mice [3]; Fisher's PLSD after ANOVA, drug 5 minutes after stress, FENM 20 mg/kg, (R,S)-ketamine 30 mg/kg, FIG. 3K
  p, Immobility Time (s), FST Day 2, Saline vs. drug: 0.6082
129S6/SvEv mice [3]; Fisher's PLSD after RMANOVA, drug 5 minutes after stress, FENM 20 mg/kg, (R,S)-ketamine 30 mg/kg, FIG. 3J
  p, Immobility Time (s), FST Day 2, Saline vs. drug: 0.8125
129S6/SvEv mice [3]; [7]
  Behavior: Depressive-like: ↓
129S6/SvEv mice [3]; [8]
  Behavior: Depressive-like: ↓
129S6/SvEv mice [3]; [12]
  Forced Swim Test Day 1, Immobility Time Min 1 (sec), p (Fisher's LSD): 0.0026
  Forced Swim Test Day 1, Immobility Time Min 2 (sec), p (Fisher's LSD): 0.2638
  Forced Swim Test Day 1, Immobility Time Min 3 (sec), p (Fisher's LSD): 0.2171
  Forced Swim Test Day 1, Immobility Time Min 4 (sec), p (Fisher's LSD): 0.6849
  Forced Swim Test Day 1, Immobility Time Min 5 (sec), p (Fisher's LSD): 0.2114
  Forced Swim Test Day 1, Immobility Time Min 6 (sec), p (Fisher's LSD): 0.0499
129S6/SvEv mice [3]; Saline vs. (R,S)-ketamine (30 mg/kg), after ANOVA, FIG. 8K
  Forced Swim Test Day 2, Immobility Time (sec), p (Fisher's LSD): 0.0046
129S6/SvEv mice [3]; Saline vs. (R,S)-ketamine (30 mg/kg), after RMANOVA, FIG. 8J
  Forced Swim Test Day 2, Immobility Time (sec), p (Fisher's LSD): 0.0036
